Measurements from patent US11707448B2, “Combination therapies for the treatment of cancer” (Eisai R&D Management Co., Ltd., priority 2014, dated 2023).

Assays:
[1] = tested on: immune cells in the CT26 tumors; test: Flow cytometry of intratumoral immune cells in CT26 tumors; assay type: in vivo, mice
Procedure: FIG. 7A to FIG. 7B. Radiation and ER-886046 worked synergistically to modify the intratumoral immunity. Panel shown in FIG. 7A) Quantification of myeloid cells (CD11b^+) and cytotoxic T cells (CD8^+) in the CT26 tumors that received 9 Gy alone, 9 Gy+ER-886046, or vehicle alone. Panel shown in FIG. 7B) Quantification of myeloid-derived suppressor cells (MDSC cells, CD11b^+Gr1^+) in the tumors. Radiation was given once to the tumors on the day of randomization, while ER-886046 was administered po daily administrated at 150 mg/kg to the animals for 7 consecutive days after randomization. The tumors were analyzed by flow cytometry one day after the last dose of ER-886046. **, p<0.01; ns, not significant; student t-test.
Flow cytometry; CT26 tumors with or without treatments received were surgically resected and minced by physical pressure, followed by digestion with collagenase I at 1 mg/ml at 37° C. for 1 h. The single cell mixtures from the digestion were labelled by incubation with fluorescent antibodies against immune cell antigens and analysed by flow cytometry. Cell population calculation was performed by software FlowJo 7.6.

[2] = tested on: PAN02 pancreatic tumors; test: PAN02 pancreatic tumor model, ER-886046 with gemcitabine and radiation; assay type: in vivo, mice
Procedure: FIG. 10. […] Antitumor activity of gemcitabine plus local radiation (RT) administered to PAN02 pancreatic tumors in C57BL/6 mice with or without ER-886046. Gemcitabine and RT dosing: a single 40 mg/kg dose of gemcitabine and a single 6 Gy dose of RT, was administered on day 27 post tumor cell injection. ER-8806046 was administered daily in an amount of 150 mg/kg from day 27 post tumor cell injection until the end of the study.
FIG. 11A to FIG. 11B. Additional experiments with combination therapy of ER-886046 and anti-metabolite chemotherapy with radiation compared to anti-metabolite chemotherapy with radiation alone. Panel shown in FIG. 11A) Gemcitabine and RT dosing: a single 40 mg/kg dose of gemcitabine and a single 6 Gy dose of RT, was administered on day 19 post tumor cell injection. ER-8806046 was administered daily in an amount of 150 mg/kg from day 19 post tumor cell injection until the end of the study. Panel shown in FIG. 11B) Gemcitabine and RT dosing: a single 40 mg/kg dose of gemcitabine and a single 6 Gy dose of RT, was administered on day 12 post tumor cell injection. ER-8806046 was administered daily in an amount of 150 mg/kg from day 12 post tumor cell injection until the end of the study. Average tumor sizes of mouse pancreatic PAN02 tumor-bearing mice that received vehicles, ER-886046, gemcitabine (gem) plus radiation (RT), ER-886046 plus RT, or ER-886046 plus gemcitabine and RT at indicated dosages and schedules. A and B represent each independent study. N=8-10 per group. NS, not significant; *, p<0.05; **, p<0.01; ***, p<0.001; and ****, p<0.0001, two-way ANOVA test.
Animal studies; In vitro cultured cancer cells were harvested and suspended in 100 μl of cold HBSS buffer at cell concentrations of 1.0×10^6 cells/ml (CT-26 cells) or of 1.0×10^7 cells/ml (PAN02 cells) and subcutaneously (sc) injected into the mice using a 26 g syringe on day 0. At the dates as indicated in the figures, the mice were randomized based on the tumor size followed by treatments with local radiation alone, gemcitabine alone (intravenous administration), ER-886046 alone (oral administration), or combinations of these treatments. […] The tumor sizes were measured twice a week by a digital caliber (Mitutoyo Corp), and the volume was calculated using the formula (1×w^2)/2=mm^3, where 1 and w refer to the larger and smaller perpendicular dimensions collected at each measurement. Graphs of group tumor sizes (mean±SEM) versus time were plotted using software GraphPad Prism 6 (Lake Forest, Calif.). Two way ANOVA was used for statistical calculation among the groups. N=8-10 in each treatment group.

## C[C@H](NC(=O)c1c(C(F)F)nn(C)c1Oc1cccc(C(F)(F)F)c1)c1ccc(C(=O)O)cc1 [ER-886046]
[1]; ER-886046 150 mg/kg po daily 7 days + 9 Gy radiation, vs vehicle or radiation alone
  ratio of Gr1+ cells among CD45+CD11b+ cells (MDSC): reduced the ratio of Gr1^+ cells among CD45^+CD11b^+ cells
[1]; ER-886046 150 mg/kg po daily 7 days added to 9 Gy radiation, vs radiation alone
  tumor infiltration frequency of CD8+ T cells and CD11b+ myeloid cells: no additional significant effect
[2]; ER-886046 150 mg/kg daily + RT 6 Gy, first study (FIG. 10)
  anti-tumor activity, ER-886046 plus RT vs triple combination: no significant difference in the anti-tumor activity
[2]; ER-886046 150 mg/kg daily from day 27 + gemcitabine 40 mg/kg + RT 6 Gy day 27, first study (FIG. 10)
  anti-tumor activity, triple combination: best anti-tumor activity among the treatment groups
[2]; ER-886046 150 mg/kg daily from day 27, first study (FIG. 10)
  anti-tumor activity, ER-886046 alone: more efficacious than RT plus gemcitabine
[2]; triple combination ER-886046 + gemcitabine + RT, day 36 after tumor cell inoculation (FIG. 11B)
  tumor-bearing animals cured: five of eight
